According to article PMC10289903 (Investigational New Drugs, 2023):
Like-named read-outs stand apart in the source and are kept apart here.

Columns and labels:
clinical [1] = conditions: in vivo
Experimental: Pre-dose samples were also collected on day 5 of treatment cycle 5.
The slope estimate (β) and corresponding 90% confidence interval (CI) were calculated, where a β estimate of 1 with 90% CI entirely within the bounds of 0.8–1.25 indicated perfect dose proportionality.

[2] = tested on: locally advanced or metastatic solid tumors; experiment: Preliminary antitumor activity (ORR, DCR, SD, PFS; RECIST v1.1); assay type: in vivo, human; conditions: for Duration of response: confirmed partial response
Experimental: Preliminary efficacy was assessed using objective response rate (ORR) in patients with measurable disease, disease control rate (DCR) and progression-free survival (PFS), all in accordance with RECIST v1.1 [17]. Responses for ORR required confirmation after at least 4 weeks.
After initiation of treatment, tumor burden was assessed at baseline and every 8 weeks (± 1 week) for the qd 5/9 dosing, and every 9 weeks (± 1 week) for the qd 5/2 treatment schedule, respectively, using computed tomography or magnetic resonance imaging of the chest and abdomen or pelvis.
The per protocol analysis set was defined as a subset of the full analysis set, excluding subjects having an important protocol deviation, to be used for analyses of efficacy endpoints if appropriate.

[3] = tested on: recurrent uterine serous carcinoma; conditions: 300 mg qd days 1–5 and 8–12 of a 21-day cycle, monotherapy, cited from earlier work
clinical [4] = conditions: human, in vivo
Experimental: (§1) Analyses were performed for the bid dosing schedules and RP2D only.
(§2) Water was restricted from 1 h pre-dose until 1 h post-dose, except for the 240 mL of water administered with treatment.
(§3) Natural log-transformed AUC and Cmax were compared between fed/fasted conditions using a mixed effects analysis of variance model, which was fitted separately for each assessed dose. Estimates of the mean difference between treatments and corresponding 90% CI were calculated using a linear mixed effects model with a fixed effect for treatment (fed versus fasted) and a random effect for patients. Back transformed geometric means and 95% CIs were estimated for each condition.

[5] = human, in vivo
Experimental: as §1, §2, §3

[6] = tested on: patients with locally advanced or metastatic solid tumors
Description: This was a Phase Ib, multicenter, open-label, dose-finding clinical trial (NCT02610075). […] Three types of treatment schedules were investigated: cohorts bid 1, bid 2, qd 1.1, qd 2.1 and qd 3.1 received bid or qd treatment on a 5/9 schedule (5 days on treatment, followed by 9 days off) on a 14-day cycle. Cohorts qd 1.2, qd 2.2, and qd 3.2 received treatment on a 5/2 schedule (5 days on followed by 2 days off for 2 of 3 weeks) in a 21-day cycle. Cohorts qd 2.3 and qd 3.3 received treatment on a weekly 5/2 schedule in a 21-day cycle (Table 1). The highest dose level(s) at which less than one-third of evaluable patients (none of 3 patients or 1 of 6 patients) experienced a dose-limiting toxicity (DLT) was declared the MTD.
DLTs were evaluated during the first 28 days (5/9 schedule) or the first 21 days (5/2 schedule) of treatment.

[7] = qd 2.3: 250 mg qd 5/2 weekly (n=10)
[8] = qd 3.3: 300 mg 5/2 weekly (n=2)

C=CCn1c(=O)c2cnc(Nc3ccc(N4CCN(C)CC4)cc3)nc2n1-c1cccc(C(C)(C)O)n1 [adavosertib, Adavosertib]
Dose proportionality power model slope β, AUC0–10 (clinical [1]; human): 1.31
Dose proportionality power model slope β, Cmax (clinical [1]; human): 1.31
half-life (clinical [1]; human, po): 5 to 12 h
Dose proportionality of systemic exposure (clinical [1]): more than dose proportional
Duration of response ([2]; 1 patient with anal carcinoma, qd 1.2 cohort): 6.9 months
Duration of response ([2]; 1 patient with thymoma, bid 2 cohort): 3.7 months
DCR, CP + PR + SD/n (%) ([2]; Total (N=62)): 48.4 CP + PR + SD/n (%)
Median PFS, months (95% CI) ([2]; Total (N=62)): 2.7 (2.0–3.8) months
ORR, CP + PR/n (%) ([2]; Total, 58 patients with measurable disease at baseline): 3.4 CP + PR/n (%)
Patients with confirmed (or unconfirmed) complete responses ([2]; all cohorts): None
Patients alive and progression-free at data cutoff ([2]; all cohorts (N=62)): 14 (22.6%) n (%)
Patients who had experienced a PFS event at data cutoff ([2]; all cohorts (N=62)): 47 (75.8%) n (%)
DCR, CP + PR + SD/n (%) ([2]; bid 2: 150 mg bid 5/9 (n=6)): 2 (33.3) CP + PR + SD/n (%)
Median PFS, months (95% CI) ([2]; bid 2: 150 mg bid 5/9 (n=6)): 1.9 (1.0–NC) months
Patients progression-free at 6 months after first dose ([2]; of 62 patients, 95% CI 10.0–32.2): 19.8%
DCR, CP + PR + SD/n (%) ([2]; qd 1.1: 200 mg qd 5/9 (n=5)): 2 (40.0) CP + PR + SD/n (%)
Median PFS, months (95% CI) ([2]; qd 1.1: 200 mg qd 5/9 (n=5)): 2.0 (0.6–NC) months
ORR, CP + PR/n (%) ([2]; qd 1.1: 200 mg qd 5/9 (n=5)): 0 CP + PR/n (%)
DCR, CP + PR + SD/n (%) ([2]; qd 1.2: 200 mg qd 5/2 (n=6)): 2 (33.3) CP + PR + SD/n (%)
Median PFS, months (95% CI) ([2]; qd 1.2: 200 mg qd 5/2 (n=6)): 2.7 (1.2–9.0) months
DCR, CP + PR + SD/n (%) ([2]; qd 2.1: 250 mg qd 5/9 (n=4)): 1 (25.0) CP + PR + SD/n (%)
Median PFS, months (95% CI) ([2]; qd 2.1: 250 mg qd 5/9 (n=4)): 1.9 (1.8–4.1) months
ORR, CP + PR/n (%) ([2]; qd 2.1: 250 mg qd 5/9 (n=4)): 0 CP + PR/n (%)
DCR, CP + PR + SD/n (%) ([2]; qd 2.2: 250 mg qd 5/2 (n=3)): 2 (66.7) CP + PR + SD/n (%)
Median PFS, months (95% CI) ([2]; qd 2.2: 250 mg qd 5/2 (n=3)): 3.7 (1.2–11.0) months
ORR, CP + PR/n (%) ([2]; qd 2.2: 250 mg qd 5/2 (n=3)): 0 CP + PR/n (%)
DCR, CP + PR + SD/n (%) [2, 7]: 3 (30.0) CP + PR + SD/n (%)
Median PFS, months (95% CI) [2, 7]: 2.1 (0.6–4.1) months
ORR, CP + PR/n (%) [2, 7]: 0 CP + PR/n (%)
DCR, CP + PR + SD/n (%) ([2]; qd 3.1: 300 mg qd 5/9 (n=4)): 3 (75.0) CP + PR + SD/n (%)
Median PFS, months (95% CI) ([2]; qd 3.1: 300 mg qd 5/9 (n=4)): 7.6 (2.7–9.3) months
ORR, CP + PR/n (%) ([2]; qd 3.1: 300 mg qd 5/9 (n=4)): 0 CP + PR/n (%)
DCR, CP + PR + SD/n (%) ([2]; qd 3.2: 300 mg qd 5/2 (n=16)): 11 (68.8) CP + PR + SD/n (%)
Median PFS, months (95% CI) ([2]; qd 3.2: 300 mg qd 5/2 (n=16)): 3.2 (2.1–5.0) months
ORR, CP + PR/n (%) ([2]; qd 3.2: 300 mg qd 5/2 (n=16)): 0 CP + PR/n (%)
DCR, CP + PR + SD/n (%) [2, 8]: 0 CP + PR + SD/n (%)
Median PFS, months (95% CI) [2, 8]: 2.6 (NC–NC) months
ORR, CP + PR/n (%) [2, 8]: 0 CP + PR/n (%)
ORR ([3]; 95% CI 15.1–47.5): 29.4%
Median PFS [3]: 6.1 months
Cmax (clinical [4]; 125 mg): 276 nM
Cmax (clinical [4]; 150 mg, Cmax, geometric LS mean (95% CI)): 464 nM
AUC0–10, geometric LS mean (95% CI) ([5]; 125 mg): 1658.8 (1017.1, 2705.3) h*nmol/L
AUC0–10, geometric LS mean (95% CI) ([5]; 150 mg): 3228.0 (1698.9, 6133.3) h*nmol/L
AUC0–10, geometric LS mean (95% CI) ([5]; 300 mg): 5340.4 (65.0, 439027.6) h*nmol/L
Cmax ([5]; 300 mg): 819 nM
Maximum tolerated dose (MTD) ([6]; bid 5/9 schedule (cohort bid 1)): 125 mg
DLT nausea, occurrences ([6]; human, in vivo): 3 n
DLT thrombocytopenia, occurrences ([6]; human, in vivo): 3 n
Number of DLTs reported ([6]; human, in vivo): 12
Recommended Phase II dose (RP2D) ([6]; human, in vivo, 21 days): 300 mg
All other DLTs (dehydration, neutropenia, weight decrease, pneumonia, diarrhea, vomiting), occurrences each ([6]; in vivo): once
Maximum tolerated dose (MTD) ([6]; qd 5/2 for 2 of 3 weeks (cohort qd 3.2)): 300 mg
Maximum tolerated dose (MTD) ([6]; qd 5/9 schedule (cohort qd 3.1)): 300 mg
